Reference: PubChem BioAssay AID1199 (EPA DSSTox, 2008)
Calls of active or inactive are those of the source.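 Rule for the calls: active = a tumour-causing dose and a tumour site recorded for mice in at least one sex group; inconclusive = only government mouse studies exist and were judged inadequate; inactive = mouse studies exist but none gave tumours.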

test system: mouse carcinogenicity bioassay, TD50 from CPDB; assay: DSSTox (CPDBAS) Carcinogenic Potency Database Summary Mouse Bioassay Results; conditions: not given
From the text: The Carcinogenic Potency Database (CPDB) is a unique and widely used international resource of the results of over 6500 chronic, long-term animal cancer tests on over 1500 chemical substances. The CPDB provides easy access to the bioassay literature, with qualitative and quantitative analyses of both positive and negative experiments that have been published over the past 50 years in the general literature and by the National Cancer Institute/National Toxicology Program. The CPDB standardizes the diverse literature of cancer bioassays that vary widely in protocol, histopathological examination and nomenclature, and in the published author's choices of what information to provide in their papers. Results are reported in the CPDB for tests in rats, mice, hamsters, dogs, and nonhuman primates, and are based on the most positive result among all experiments for each sex-species. The DSSTox CPDBAS (all species) file incorporates data from the CPDB Summary Tables for the full list of over 1500 chemical substances tested in at least one species. Summary bioassay results for Mouse (TD50, tumor sites, male, female, both sexes) are provided in the CPDB Summary Tables and the DSSTox CPDBAS file for over 1000 chemical substances.
TD50 is a standardized quantitative measure of carcinogenic potency (analogous to an LD50) and is reported in the CPDB Summary Table for each species. Activity Score for actives is computed by mapping of LOG10 (1/TD50_Mouse_mmol) activity values spanning range [MIN, MAX] onto Integer 1-100 Activity Score range, where 100 is highest potency and 1 is lowest: Activity Score = 100 * INTEGER[(log10(1/Activity) - MIN)/(MAX […] MIN)]. If activity is reported but no TD50_Mouse_mmol value is computed, such as for a mixture, the Activity Score is assigned the activity value "50". […] Target sites are reported for each sex-species group with a positive result in the CPDB on the basis of a positive author's opinion for the particular site, using all results from both the general literature and NCI/NTP bioassays. If a chemical has two or more target sites listed, the results may be from different experiments, and a single site may be a target organ in more than one experiment, as well. Blank entry in TargetSites field indicates no results reported.

SMILES	Potency [mmol/kg/day]
COS(C)(=O)=O	0.289
CN(N=O)C(N)=O	0.0119

same assay, conditions: TD50_Mouse_Note: TD50 is harmonic mean of more than one positive test; TargetSites_Mouse_Female: esophagus; oral cavity; stomach

SMILES	Potency [mmol/kg/day]
c1ccc2c(c1)cc1ccc3cccc4ccc2c1c34	0.0138

same assay, conditions: TD50_Mouse_Note: TD50 is harmonic mean of more than one positive test; TargetSites_Mouse_Female: harderian gland; pituitary gland; vascular system

SMILES	Potency [mmol/kg/day]
C=CC(=C)C	4.02

same assay, conditions: TD50_Mouse_Note: TD50 is harmonic mean of more than one positive test; TargetSites_Mouse_Female: liver

SMILES	Potency [mmol/kg/day]
C[C@@H]1Cc2c(Cl)cc(C(=O)N[C@@H](Cc3ccccc3)C(=O)O)c(O)c2C(=O)O1	0.0159
ClC1(Cl)C2(Cl)C3(Cl)C4(Cl)C(Cl)(Cl)C5(Cl)C3(Cl)C1(Cl)C5(Cl)C24Cl (stereo unspecified)	0.00266
ClC(Cl)C(Cl)Cl	0.228
Cc1c(N(C)CS(=O)(=O)O)c(=O)n(-c2ccccc2)n1C	1.89
CC(Cl)CCl (stereo unspecified)	2.44
O=[N+]([O-])c1ccc(Oc2ccc(Cl)cc2Cl)cc1	0.405

same assay, conditions: TD50_Mouse_Note: TD50 is harmonic mean of more than one positive test; TargetSites_Mouse_Female: liver; lung; stomach

SMILES	Potency [mmol/kg/day]
Nc1c(Br)cc(Br)c2c1C(=O)c1ccccc1C2=O	1.25

same assay, conditions: TD50_Mouse_Note: TD50 is harmonic mean of more than one positive test; TargetSites_Mouse_Female: liver; pituitary gland

SMILES	Potency [mmol/kg/day]
C[C@H]1CCCC(=O)CCC/C=C/c2cc(O)cc(O)c2C(=O)O1	0.123

same assay, conditions: TD50_Mouse_Note: TD50 is harmonic mean of more than one positive test; TargetSites_Mouse_Female: liver; pituitary gland; thyroid gland

SMILES	Potency [mmol/kg/day]
S=C1NCCN1	0.23

same assay, conditions: TD50_Mouse_Note: TD50 is harmonic mean of more than one positive test; TargetSites_Mouse_Female: lung

SMILES	Potency [mmol/kg/day]
NC(=O)NNc1ccccc1	1.09
Clc1ccc(C(c2ccc(Cl)cc2)C(Cl)Cl)cc1	0.0959
C=CCNNCC=C	0.183

same assay, conditions: TD50_Mouse_Note: TD50 is harmonic mean of more than one positive test; TargetSites_Mouse_Female: lung; vascular system

SMILES	Potency [mmol/kg/day]
CN(C)N	0.0659

same assay, conditions: TD50_Mouse_Note: TD50 is harmonic mean of more than one positive test; TargetSites_Mouse_Female: no positive results

SMILES	Potency [mmol/kg/day]
OCCN(CCO)C(=S)S	0.172

same assay, conditions: TD50_Mouse_Note: TD50 is harmonic mean of more than one positive test; TargetSites_Mouse_Female: stomach

SMILES	Potency [mmol/kg/day]
O=NN1CCN(N=O)CC1	0.025
ClCc1cccnc1	1.4

same assay, conditions: TD50_Mouse_Note: TD50 is harmonic mean of more than one positive test; TargetSites_Mouse_Female: vascular system

SMILES	Potency [mmol/kg/day]
NNc1ccccc1	0.493

same assay, conditions: TD50_Mouse_Note: TD50 is harmonic mean of more than one positive test; greater than ten-fold variation among TD50 values for positive res; TargetSites_Mouse_Female: gall bladder; liver; lung; vascular system

SMILES	Potency [mmol/kg/day]
CN(N)C=O	0.0185

same assay, conditions: TD50_Mouse_Note: TD50 is harmonic mean of more than one positive test; greater than ten-fold variation among TD50 values for positive res; TargetSites_Mouse_Female: harderian gland; hematopoietic system; liver; lung; mammary gland; ovary; stomach; vascular system

SMILES	Potency [mmol/kg/day]
C=CC=C	0.257

same assay, conditions: TD50_Mouse_Note: TD50 is harmonic mean of more than one positive test; harmonic mean of TD50 includes a value for upper 99% confidence li; TargetSites_Mouse_Female: liver

SMILES	Potency [mmol/kg/day]
Nc1ccc2oc3ccccc3c2c1	0.0231

same assay, conditions: TD50_Mouse_Note: no positive results

SMILES	outcome
C/C1=C\C=C(\C(C)C)[C@@H](O)C/C(C)=C/CC/C(C)=C/CC1	inactive; no positive results
O=C(O)O	inactive; no positive results

same assay, conditions: TD50_Mouse_Note: no positive results; TargetSites_Mouse_Female: no positive results

SMILES	outcome
CCOC(=O)CBr	inactive
CCCCOC(=O)COc1ccc(Cl)cc1Cl	inactive; no positive results
CC1(C)S[C@@H]2[C@H](NC(=O)COc3ccccc3)C(=O)N2[C@H]1C(=O)O	inactive; no positive results
CCCCCc1cc(O)c2c(c1)OC(C)(C)[C@@H]1CCC(C)=C[C@@H]21	inactive; no positive results
OCl	inactive; no positive results
c1ccc2sc(SNC3CCCCC3)nc2c1	inactive; no positive results
O=C(CCl)c1ccccc1	inactive; no positive results
CC(C)O	inactive; no positive results
Cc1c(N(C)C)c(=O)n(-c2ccccc2)n1C	inactive; no positive results
FC(F)OC(Cl)C(F)(F)F (stereo unspecified)	inactive; no positive results
NCCNc1cccc2ccccc12	inactive; no positive results
CC1(C)[C@@H](OC2O[C@H](C(=O)O)[C@@H](O)[C@H](O)[C@H]2O[C@H]2O[C@H](C(=O)O)[C@@H](O)[C@H](O)[C@H]2O)CC[C@]2(C)[C@H]3C(=O)C=C4[C@@H]5C[C@@](C)(C(=O)O)CC[C@]5(C)CC[C@@]4(C)[C@]3(C)CC[C@@H]12 (stereo partly specified)	inactive; no positive results
Clc1ccccc1Cl	inactive; no positive results
O=c1c(CO)c/c(=N/Nc2ccc(S(=O)(=O)O)c3ccccc23)c(=O)/c1=N/Nc1ccc(S(=O)(=O)O)c2ccccc12	inactive; no positive results
O=S(=O)([O-])[O-].[O]=[V+2]	inactive; no positive results
CCN(CC)C(=S)[S-].CCN(CC)C(=S)[S-].[Zn+2]	inactive; no positive results
c1ccc2sc(SSc3nc4ccccc4s3)nc2c1	inactive; no positive results
C/C=C/C=C/C(=O)O	inactive; no positive results
CCCNC(=O)NS(=O)(=O)c1ccc(Cl)cc1	inactive; no positive results
CNC(=O)Oc1cccc2c1OC(C)(C)C2	inactive; no positive results
Cc1ccc([N+](=O)[O-])cc1	inactive; no positive results
O=[N+]([O-])c1cc([N+](=O)[O-])c(Cl)c(Cl)c1Cl	inactive; no positive results
O=C(O)c1ccncc1	inactive; no positive results

SMILES	outcome
CCCCC(C)(O)C/C=C/[C@H]1[C@H](O)CC(=O)[C@@H]1CCCCCCC(=O)OC (stereo partly specified)	inactive; no positive results
Cc1ccc(Cc2cnc(NCCSCc3ccc(CN(C)C)o3)[nH]c2=O)cn1	inactive; no positive results
CC(O)CCl (stereo unspecified)	inactive; no positive results
CCN(CC)C(=O)/C(Cl)=C(\C)OP(=O)(OC)OC	inactive; no positive results
Nc1ccccc1C(=O)O	inactive; no positive results
FC(Cl)(Cl)Cl	inactive; no positive results
Cc1cc(O)cc(C)c1N(C)C	inactive; no positive results
Cc1cc(OC(=O)N(C)C)n(C(C)C)n1	inactive; no positive results
C=CCN=C=S	inactive; no positive results
COP(=S)(OC)Oc1ccc(SC)c(C)c1	inactive; no positive results
ClC1=C(Cl)[C@]2(Cl)[C@@H]3[C@H]4C[C@H]([C@@H]5O[C@H]45)[C@@H]3[C@@]1(Cl)C2(Cl)Cl	inactive; no positive results
O=S(=O)(O)c1ccc(N=Nc2cc(S(=O)(=O)O)c3ccccc3c2O)c2ccccc12	inactive; no positive results
CC(C)COC(=O)c1ccc(O)cc1	inactive; no positive results
CCOC(=O)[C@]1(c2ccccc2)CCC=C[C@H]1N(C)C	inactive; no positive results
CCNc1nc(Cl)nc(NCC)n1	inactive; no positive results
CC(Cl)Cl	inactive; no positive results
CNCCC(Oc1ccc(C(F)(F)F)cc1)c1ccccc1 (stereo unspecified)	inactive; no positive results
CN1C(=O)C[C@@H](C(=O)N[C@@H](Cc2cnc[nH]2)C(=O)N2CCC[C@H]2C(N)=O)NC1=O	inactive; no positive results
O=[N+]([O-])c1cc([As](=O)(O)O)ccc1O	inactive; no positive results
OCc1ccccc1	inactive; no positive results
CCNc1nc(Cl)nc(NC(C)C)n1	inactive; no positive results
COc1cc(-c2ccc(N=C=O)c(OC)c2)ccc1N=C=O	inactive; no positive results
NNc1ccccc1	inactive

same assay, conditions: TD50_Mouse_Note: positive test results only by intraperitoneal or intravenous injection; TD50 is harmonic mean of more than one positive; TargetSites_Mouse_Female: hematopoietic system; lung

SMILES	Potency [mmol/kg/day]
O[C@H]([C@H](O)[C@@H](O)CBr)[C@H](O)CBr	0.0357
O=P1(N(CCCl)CCCl)NCCCO1 (stereo unspecified)	0.0228

same assay, conditions: TargetSites_Mouse_BothSexes: no positive results

SMILES	outcome
O=S(=O)([O-])[O-].O=S(=O)([O-])[O-].[Zr+4]	inactive
O=C(OOC(=O)c1ccccc1)c1ccccc1	inactive

same assay, conditions: TargetSites_Mouse_Female: hematopoietic system; lung; stomach

SMILES	Potency [mmol/kg/day]
ClC(Cl)(Cl)c1ccccc1	0.00203

same assay, conditions: TargetSites_Mouse_Female: liver

SMILES	Potency [mmol/kg/day]
CCCCCC	352
CCCCC(CC)CO (stereo unspecified)	12.9
Nc1cc(Cl)cc(C(=O)O)c1Cl	25.4
Cc1ccc2c(c1N)C(=O)c1ccccc1C2=O	0.733
Nc1ccc(N=Nc2ccccc2)c(N)n1	0.285
Cc1cccc(Nc2cc(Cl)nc(SCC(=O)NCCO)n2)c1C	0.122

same assay, conditions: TargetSites_Mouse_Female: lung; stomach; urinary bladder

SMILES	Potency [mmol/kg/day]
Cl/C=C/CCl	0.447

same assay, conditions: TargetSites_Mouse_Female: no positive results

SMILES	Potency [mmol/kg/day]
Nc1c(F)c(N)c(F)c(F)c1F	0.341
CC(N)=O	51
COc1ccc(OC)c(/C=C/c2ccc(N)cc2)c1	0.376
Cc1ccc(N=Nc2c(O)ccc3ccccc23)c([N+](=O)[O-])c1	116
Cl/C=C/CCl	1.06
OC(c1ccc(Cl)cc1)(c1ccc(Cl)cc1)C(Cl)(Cl)Cl	0.0888

same assay, conditions: TargetSites_Mouse_Female: small intestine

SMILES	Potency [mmol/kg/day]
OO	222
